Bridge positions count the residues as written; N and C are the ends. Ends that are not written are not given here.
Tests used:
Wistar male rats [1] = assay: Locomotion measurement: effects of diazepam on locomotion induced by intraventricular polypeptide (SEQ ID NO: 9) or PACAP38; format: in vivo, rat
Source text: (§1) Each of Wistar male rats (8 weeks old) was anesthetized with pentobarbital and fixed on a stereotaxic apparatus. A guide cannula (AG-8, Eicom) was inserted into the lateral ventricle of each rat (AP: +8.1 mm, L: 1.8 mm, H: +7.1 mm). The rats were then allowed to recover for at least one week before the experiment. During the recovery period, handling was made every day to reduce stresses resulting from intraventricular administration.
(§2) The cannulated rats were transferred to a locomotion testing system (Supermex, Muromachi Kikai Co., Ltd.) and acclimatized overnight. The rats were transferred from the locomotion testing system and subcutaneously administered with diazepam (1 mg/kg). An hour later, the rats were intraventricularly administered with the polypeptide (SEQ ID NO: 9; 10 nmol) or PACAP38 (3 nmol) dissolved in phosphate buffered saline (PBS) at a flow rate of 2.5 μl/min for 4 minutes. Immediately after the administration, the rats were returned to the locomotion testing system and tested for their spontaneous locomotion (FIG. 4).

C57BL/6N mice [2] = assay: Hole board test; format: in vivo, mouse; conditions: 0.1, 0.3 or 3 nmol into the lateral ventricle, 30 minutes after administration, over 5 minutes
Method: A polyvinyl chloride box having 4 holes (diameter: 3.8 cm) at its bottom was used as a hole board. Locomotion on the hole board was measured with a Supermex sensor (Muromachi Kikai Co., Ltd.). To measure the number of head dippings, MRS-110RX infrared-scanning sensors (Muromachi Kikai Co., Ltd.) were provided immediately below the respective holes.
(§3) After C57BL/6N mice were acclimatized in the laboratory, PBS containing the polypeptide (SEQ ID NO: 9; 0.1 nmol, 0.3 nmol or 3 nmol) or PBS alone was administered in a volume of 5 μl into the lateral ventricle of each mouse using a double-needle (Matsumoto Seisakusho) under ether anesthesia. Thirty minutes after the administration, each mouse was placed in the center of the hole board and tested over 5 minutes for locomotion and the number of head dippings.

Wistar male rats [3] = assay: Locomotion measurement (spontaneous locomotion and number of rearings) after administration into the lateral ventricle; format: in vivo, rat
Source text: as §1, with “Wistar” for “Each of Wistar”, “rats (9” for “rats (8”, “old) were” for “old) was”, “and” for “and fixed on”, “a” for “a stereotaxic apparatus. A”
On the day before the experiment, the rats were transferred to a locomotion testing system for acclimation purposes. Under unanesthetized and unrestrained conditions, a microinjection cannula was attached to the guide cannula through which each rat was administered with the polypeptide (SEQ ID NO: 9; 10 nmol) dissolved in phosphate buffered saline (PBS) or PBS alone at a rate of 5 μl/min for 2 minutes. Immediately after the administration, the rats were returned to the locomotion testing system (Supermex, Muromachi Kikai Co., Ltd.) and tested for their spontaneous locomotion and the number of rearings (FIG. 1).
Wistar male rats (9 weeks old) were anesthetized with pentobarbital and a guide cannula (AG-8, Eicom) was inserted into the lateral ventricle of each rat (AP: 8.1 mm, L: 1.8 mm, H: 7.1 mm). The rats were then allowed to recover for at least one week before the experiment. During the recovery period, handling was made every day to reduce stresses resulting from intraventricular administration.
On the day before the experiment, the rats were transferred to a locomotion testing system for acclimation purposes. Under unanesthetized and unrestrained conditions, a microinjection cannula was attached to the guide cannula through which each rat was administered with the polypeptide (SEQ ID NO: 9; 1 nmol) dissolved in PBS or PBS alone in a volume of 10 μl (5 μl/min for 2 minutes). Immediately after the administration, the rats were returned to the locomotion testing system (Supermex, Muromachi Kikai Co., Ltd.) and tested for their spontaneous locomotion and the number of rearings (FIG. 2).
as §1
as §2, with “and” for “and subcutaneously administered with diazepam (1 mg/kg). An hour later, the rats were”, “9; 1 nmol or” for “9;”, “10” for “10 nmol) or PACAP38 (3”, “(PBS) or PBS alone” for “(PBS)”, “5” for “2.5”, “and the number of rearings.” for “(FIG. 4).”

C57BL/6N mice [4] = assay: Elevated plus maze test; format: in vivo, mouse; conditions: for (Open arm entries)/(open arm entries + closed arm entries): 30 minutes after administration, tested over 5 minutes
Source text: An acrylic maze having 4 arms (25 cm long, 8 cm wide) placed in the shape of a cross (elevated plus maze) was positioned in a sound-proof chamber under low illumination (0.5 lux). Two opposite arms of the elevated plus maze were enclosed by walls (closed arms) and the other two arms were wall-less (open arms). The maze was elevated 25 cm above the floor (FIG. 5).
as §3, with “9; 1” for “9; 0.1 nmol, 0.3”, “placed on” for “placed in”, “the elevated plus maze” for “the center of the hole board”, “for” for “for locomotion and”, “of entries into each arm and the time spent on open arms.” for “of head dippings.”

[5] = Example 1, 10 nmol into the lateral ventricle
[6] = Example 2, 1 nmol into the lateral ventricle
[7] = Example 3, 10 nmol intraventricularly

PACAP38: PACAP38 known to have the ability to increase locomotion (HSDGIFTDSYSRYRKQMAVKKYLAAVLGKRYKQRVKNK; ends and bridges not checked; UniProt P18509 132-169, looked up)
spontaneous locomotion (Wistar male rats [1]; PACAP38 3 nmol intraventricularly): increase in locomotion

polypeptide (SEQ ID NO: 9): bovine SENR ligand peptide; the 6th and 11th cysteine residues form an intramolecular disulfide bond (GPSSECFWKYCV; disulfide 6-11)
locomotion on the hole board (C57BL/6N mice [2]): no change
number of head dippings (C57BL/6N mice [2]): significant decrease
locomotion after the initial decrease (Wistar male rats [3]; [5]): increase in their locomotion
number of rearings (Wistar male rats [3]; [5]): same effects as found in spontaneous locomotion
spontaneous locomotion immediately after the administration, as compared with the control rats (Wistar male rats [3]; [5]): tended to decrease
inhibition against a transient increase in locomotion as observed in 10 nmol administration (Wistar male rats [3]; [6]): did not show such an inhibition
locomotion from immediately after the administration (Wistar male rats [3]; [6]): increase in their locomotion
locomotion and the number of rearings from immediately after the administration (Wistar male rats [3]; Example 3, 1 nmol intraventricularly): increases
duration of the decreases in locomotion and number of rearings (Wistar male rats [3]; [7]): about 10 minutes
duration of the increase in locomotion (Wistar male rats [3]; [7]): about 1 hour
locomotion and the number of rearings immediately after the administration (Wistar male rats [3]; [7]): decreases
locomotion following the transient decrease (Wistar male rats [3]; [7]): increase in locomotion
number of rearings (Wistar male rats [3]; Example 3, 10 nmol intraventricularly, less significant tendency to increase): 51.0±13.4 times/90 min
(Open arm entries)/(open arm entries + closed arm entries) (C57BL/6N mice [4]; 1 nmol into the lateral ventricle, n=20): 0.131 ± 0.009
probability to select open arms (C57BL/6N mice [4]; 1 nmol or 3 nmol into the lateral ventricle): reduced
(Open arm entries)/(open arm entries + closed arm entries) (C57BL/6N mice [4]; 3 nmol into the lateral ventricle, n=20, *p < 0.05, Dunnett): 0.065 ± 0.018*

CN1C(=O)CN=C(c2ccccc2)c2cc(Cl)ccc21 [Diazepam, diazepam]
effect on the increase in locomotion induced by PACAP38 (Wistar male rats [1]; diazepam 1 mg/kg subcutaneously 1 hour before PACAP38 3 nmol intraventricularly): dose not affect
effect on the increase in locomotion induced by the polypeptide (SEQ ID NO: 9) (Wistar male rats [1]; diazepam 1 mg/kg subcutaneously 1 hour before polypeptide (SEQ ID NO: 9) 10 nmol intraventricularly): significantly inhibits

Source: patent US20040053826A1, “Uses of polypeptides” (priority 2000, published 2004)
